Data reported in patent publication US20230167073A1 (Teijin Pharma Limited, priority 2020, published 2023).

Biological target: T1, Human TRPC6 (Homo sapiens, UniProt Q9Y210)
T1 construct: expressed in transfected cells
T1 sequence (Q9Y210 1-931): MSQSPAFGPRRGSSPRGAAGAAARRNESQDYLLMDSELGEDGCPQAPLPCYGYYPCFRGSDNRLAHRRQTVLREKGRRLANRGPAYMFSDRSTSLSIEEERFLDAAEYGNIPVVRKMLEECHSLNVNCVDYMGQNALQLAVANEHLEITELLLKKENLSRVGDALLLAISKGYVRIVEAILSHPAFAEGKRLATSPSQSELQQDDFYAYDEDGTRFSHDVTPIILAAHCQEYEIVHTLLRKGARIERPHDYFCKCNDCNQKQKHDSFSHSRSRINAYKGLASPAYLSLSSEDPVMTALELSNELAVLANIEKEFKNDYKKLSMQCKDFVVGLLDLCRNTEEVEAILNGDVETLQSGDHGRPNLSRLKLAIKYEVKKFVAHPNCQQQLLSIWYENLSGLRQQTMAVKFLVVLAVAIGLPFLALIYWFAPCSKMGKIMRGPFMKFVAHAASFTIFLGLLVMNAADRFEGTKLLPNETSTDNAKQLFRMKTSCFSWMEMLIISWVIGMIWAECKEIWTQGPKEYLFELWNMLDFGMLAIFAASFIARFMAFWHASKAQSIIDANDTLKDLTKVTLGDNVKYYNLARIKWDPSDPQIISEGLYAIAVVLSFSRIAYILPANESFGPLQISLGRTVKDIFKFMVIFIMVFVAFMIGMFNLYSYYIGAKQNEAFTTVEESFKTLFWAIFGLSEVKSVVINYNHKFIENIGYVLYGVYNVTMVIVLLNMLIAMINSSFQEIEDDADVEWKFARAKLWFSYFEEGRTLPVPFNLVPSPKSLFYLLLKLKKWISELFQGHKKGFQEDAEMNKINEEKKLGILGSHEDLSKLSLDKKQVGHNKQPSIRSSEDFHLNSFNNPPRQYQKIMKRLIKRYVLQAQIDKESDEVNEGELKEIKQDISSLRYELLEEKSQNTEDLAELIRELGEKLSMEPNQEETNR
Test: Evaluation of TRPC6 channel inhibitory activity (2), HEK293 cells with stably introduced human TRPC6, OAG stimulation, FLIPR tetra (Compound Nos. 1293 to 1405)
Assay type: cell-based
Settings: HEK293 cells with stably introduced human TRPC6, OAG 50 μM/0.5% DMSO, read-out: Inhibitory activity (pIC50 class) (converted)
Description: Evaluation of TRPC6 Channel Inhibitory Activity (2) (Compound Nos. 1293 to 1405)
The activity of the TRPC6 inhibitor was measured by stimulating HEK293 cells, in which human TRPC6 was stably introduced, with OAG (1-Oleoyl-2-acetyl-sn-glycerol, Miliipore Sigma, 06754), using the FLIPR tetra system. The cells were proliferated in a humid environment at 37° C. 5% CO2 using a growth medium (DMEM (Dulbecco's Modified Eagle's Medium) high glucose containing 10% fetal bovine serum, 1×PSGlu (penicillin-streptomycin glutamine), 1×NEAA (Non-essential amino acid), sodium pyruvate and 200 μg/mL hyglomycin. For cell subculture, the cells were proliferated to 70-90% confluence, and gently washed twice with PBS (phosphate-buffered saline) free of calcium and magnesium after removing the medium. Then, the cells were incubated at 37° C. for 5 minutes after adding trypsin (3 mL), peeled off by tapping the flask at the base of the hand, 7 mL of growth medium was added to inactivate trypsin, and then the cells were resuspended. Usually, the cells were separated every 2-3 days to become a cell density of ⅕. The day before evaluation, the cells were seeded in a poly-D-lysine (PDL) coated 384-well plate using a multi-channel pipette or multidrop at a cell density of 1.0-1.5×10^4 cells/25 μL/well. After culturing overnight in a PDL-coated 384 Blackwell plate, a fluorescent dye buffer was added first to the cells and the cells were cultured at room temperature for 90-120 minutes. For preparing 10 mL of fluorescent dye buffer, 9 mL of assay buffer, 1 mL of 10×PBX signal enhancer, and 10 μL of calcium indicator were mixed. Cells treated with the compounds of each level 25 minutes before the stimulation with OAG of TRPC6 agonist were incubated. OAG solution was prepared by adding OAG to assay buffer (Ca ringer solution base: 10 mM HEPES (4-(2-hydroxyethyl)-1-piperazine-ethanesulfonic acid), 4 mM MgCl2, 120 mM NaCl, 5 mM KCl, pH=7.2 (25° C.)+0.1% BSA+2 mM CaCl2)) to give an OAG concentration of 0.2 mM/2% DMSO. The final concentration of OAG added to the cells is 50 μM/0.5% DMSO. A volume of 12.5 μL of OAG solution was added, and activation of TRPC6 channel was measured using the FLIPR tetra system assaying the change in intracellular calcium level as an index. The 180 seconds imaging frame was defined as the background signal, and the subtraction of the background signal from the raw data was used as the fluorescence peak signal. Each fluorescence peak signal is standardized using an OAG-induced signal and buffer-induced signal as 100% and 0%, respectively. The inhibition rate obtained by plotting the peak signal after the addition of the compounds of each level was analyzed by a four-parameter logistic regression to quantify the inhibition rate in the logarithm of the inverse of the effective concentration which gives a 50% inhibition rate (pIC50). The intensity was expressed by the above-mentioned symbols (+, ++, +++).

| Compound | IC50 [nM] |
| --- | --- |
| Cc1nc(Oc2cc(Cl)ccc2-c2ncc(CCN)cn2)c(C)c(N2CCOCC2)n1 [compound 1405, 2-[2-[4-chloro-2-(2,5-dimethyl-6-morpholin-4-ylpyrimidin-4-yl)oxyphenyl]pyrimidin-5-yl]ethanamine] | > 1000 |
| Cc1cc(Oc2cc(Cl)ccc2-c2ccc([C@@H](O)CN)cn2)cc(N2CCOCC2)n1 [compound 1395, (1R)-2-amino-1-[6-[4-chloro-2-(2-methyl-6-morpholin-4-ylpyridin-4-yl)oxyphenyl]pyridin-3-yl]ethanol] | < 10 |
| Cn1nc(C2CCOCC2)cc1Oc1cc(Cl)ccc1-c1ccc([C@@H](F)CN)cn1 [compound 1387, (2R)-2-[6-[4-chloro-2-[2-methyl-5-(oxan-4-yl)pyrazol-3-yl]oxyphenyl]pyridin-3-yl]-2-fluoroethanamine] | < 10 |
| Cn1nc(C2CC2)cc1Oc1cc(C#N)ccc1-c1ncc([C@@H](F)CN)cn1 [compound 1366, 4-[5-[(1R)-2-amino-1-fluoroethyl]pyrimidin-2-yl]-3-(5-cyclopropyl-2-methylpyrazol-3-yl)oxybenzonitrile] | < 10 |
| Cn1nc(C2CCOCC2)cc1Oc1cc(Cl)cnc1-c1ccc([C@@H](F)CN)cn1 [compound 1372, (2R)-2-[6-[5-chloro-3-[2-methyl-5-(oxan-4-yl)pyrazol-3-yl]oxypyridin-2-yl]pyridin-3-yl]-2-fluoroethanamine] | > 1000 |
| Cn1nc([C@H]2CCOC2)cc1Oc1cc(Cl)ccc1-c1ccc(CN)cn1 [compound 1345, [6-[4-chloro-2-[2-methyl-5-[(3R)-oxolan-3-yl]pyrazol-3-yl]oxyphenyl]pyridin-3-yl]methanamine] | 10 to 1000 |
| Cn1nc(C2CCOCC2)cc1Oc1cc(Cl)ccc1-c1ncc([C@H](F)CN)cn1 [compound 1359, (2S)-2-[2-[4-chloro-2-[2-methyl-5-(oxan-4-yl)pyrazol-3-yl]oxyphenyl]pyrimidin-5-yl]-2-fluoroethanamine] | 10 to 1000 |
| Cc1cc(Oc2cc(C#N)ccc2-c2cccc3cnc(N)nc23)cc(N2CCOCC2)n1 [compound 1303, 4-(2-aminoquinazolin-8-yl)-3-(2-methyl-6-morpholin-4-ylpyridin-4-yl)oxybenzonitrile] | > 1000 |
| Cc1cc(Oc2cc(Cl)ccc2-c2ccc(CN)cn2)cc(N2CCOCC2)n1 [compound 1321, [6-[4-chloro-2-(2-methyl-6-morpholin-4-ylpyridin-4-yl)oxyphenyl]pyridin-3-yl]methanamine] | 10 to 1000 |
| Cn1nc(C2CCOCC2)cc1Oc1cc(C#N)ccc1-c1ccc([C@H](F)CN)cn1 [compound 1369, 4-[5-[(1S)-2-amino-1-fluoroethyl]pyridin-2-yl]-3-[2-methyl-5-(oxan-4-yl)pyrazol-3-yl]oxybenzonitrile] | < 10 |
| Cn1nc([C@H]2CCOC2)cc1Oc1cc(Cl)ccc1-c1ncc([C@H](F)CN)cn1 [compound 1344, (2S)-2-[2-[4-chloro-2-[2-methyl-5-[(3R)-oxolan-3-yl]pyrazol-3-yl]oxyphenyl]pyrimidin-5-yl]-2-fluoroethanamine] | > 1000 |

More lines, now with the values ahead:

| IC50 [nM] | Compound |
| --- | --- |
| < 10 | Cn1nc([C@H]2CCCOC2)cc1Oc1cc(C#N)ccc1-c1ccc(CN)cn1 [compound 1330, 4-[5-(aminomethyl)pyridin-2-yl]-3-[2-methyl-5-[(3R)-oxan-3-yl]pyrazol-3-yl]oxybenzonitrile] |
| 10 to 1000 | Cn1nc(-c2ccccn2)cc1Oc1cc(C#N)ccc1-c1ncc(C(F)(F)CN)cn1 [compound 1318, 4-[5-(2-amino-1,1-difluoroethyl)pyrimidin-2-yl]-3-(2-methyl-5-pyridin-2-ylpyrazol-3-yl)oxybenzonitrile] |
| 10 to 1000 | Cc1cc(Oc2cc(Cl)ccc2-c2ncc(CCN)cn2)cc(N2CCOCC2)n1 [compound 1311, 2-[2-[4-chloro-2-(2-methyl-6-morpholin-4-ylpyridin-4-yl)oxyphenyl]pyrimidin-5-yl]ethanamine] |
| > 1000 | Cn1nc(-c2ccccc2)nc1Oc1cc(Cl)ccc1-c1ncc(CN)cn1 [compound 1364, [2-[4-chloro-2-[(2-methyl-5-phenyl 1,2,4-triazol-3-yl)oxy]phenyl]pyrimidin-5-yl]methanamine] |
| 10 to 1000 | Cc1nc(Oc2cc(Cl)ccc2-c2ncc([C@H](O)CN)cn2)cc(N2CCOCC2)n1 [compound 1377, (1S)-2-amino-1-[2-[4-chloro-2-(2-methyl-6-morpholin-4-ylpyrimidin-4-yl)oxyphenyl]pyrimidin-5-yl]ethanol] |
| < 10 | Cn1nc(C2CC2)cc1Oc1cc(C#N)ccc1-c1ncc([C@H](F)CN)cn1 [compound 1367, 4-[5-[(1S)-2-amino-1-fluoroethyl]pyrimidin-2-yl]-3-(5-cyclopropyl-2-methylpyrazol-3-yl)oxybenzonitrile] |
| < 10 | Cn1nc(C2CC2)cc1Oc1cc(Cl)ccc1-c1ccc(CN)cn1 [compound 1346, [6-[4-chloro-2-(5-cyclopropyl-2-methylpyrazol-3-yl)oxyphenyl]pyridin-3-yl]methanamine] |
| 10 to 1000 | Cn1nc(C2CCOCC2)cc1Oc1cc(Cl)ccc1-c1ncc([C@@H](O)CN)cn1 [compound 1389, (1R)-2-amino-1-[2-[4-chloro-2-[2-methyl-5-(oxan-4-yl)pyrazol-3-yl]oxyphenyl]pyrimidin-5-yl]ethanol] |
| > 1000 | Cn1nc(C2CC2)cc1Oc1cc(C#N)ccc1-c1ccc(C(F)(F)CN)nc1 [compound 1294, 4-[6-(2-amino-1,1-difluoroethyl)pyridin-3-yl]-3-(5-cyclopropyl-2-methylpyrazol-3-yl)oxybenzonitrile] |
| 10 to 1000 | Cc1cc(Oc2cc(C#N)ccc2-c2ccc3c(n2)CNC3)cc(N2CCOCC2)n1 [compound 1297, 4-(6,7-dihydro-5H-pyrrolo[3,4-b]pyridin-2-yl)-3-(2-methyl-6-morpholin-4-ylpyridin-4-yl)oxybenzonitrile] |
| 10 to 1000 | Cn1nc([C@@H]2CCOC2)cc1Oc1cc(C#N)ccc1-c1ncc(CN)cn1 [compound 1308, 4-[5-(aminomethyl)pyrimidin-2-yl]-3-[2-methyl-5-[(3S)-oxolan-3-yl]pyrazol-3-yl]oxybenzonitrile] |
| < 10 | Cn1nc(-c2ccccn2)cc1Oc1cc(Cl)ccc1-c1ccc(CN)cn1 [compound 1340, [6-[4-chloro-2-(2-methyl-5-pyridin-2-ylpyrazol-3-yl)oxyphenyl]pyridin-3-yl]methanamine] |
| 10 to 1000 | Cc1cc(Oc2cc(Cl)cnc2-c2ncc(CCN)cn2)cc(N2CCOCC2)n1 [compound 1385, 2-[2-[5-chloro-3-(2-methyl-6-morpholin-4-ylpyridin-4-yl)oxypyridin-2-yl]pyrimidin-5-yl]ethanamine] |
